Laboratory results as given in PMC7955127, “Preclinical small molecule WEHI-7326 overcomes drug resistance and elicits response in patient-derived xenograft models of human treatment-refractory tumors” (Cell Death & Disease, 2021).

Legend:
MH792 LUSC PDX = assay: LUSC PDX model MH792; format: in vivo, NOD-SCID-IL2Rγc–/– mice
Experimental: LUSC PDXs were generated as described in[25]. PDXs at passage 4 were defrosted and washed with PBS before counting. 200,000 to 500,000 cells were then injected in a 50:50 PBS:Matrigel mix into the flanks of NOD-SCID-IL2Rγc–/– male mice. Tumors were measured twice weekly with calipers and treatment started when tumors were between 70–120 mm^3. Mice were assigned to treatment groups based on average tumor volume per group. Mice were culled when tumors reached a volume of 600 mm^3.

[1] = test system: MDA-MB-231, H1437, LoVo and PC3 cells; assay: Anti-proliferative activity in a panel of cancer cell lines (CellTiterGlo, 72 h); format: cell-based, human
Experimental: (§1) Cells were plated at a density of between 500 to 5000 cells per well for adherent cell lines depending on doubling time, and 15,000 cells per well for lymphoblastic leukemia cell lines, in a 96-well plate in 200 μl of growth media. Plates were incubated overnight at 37 °C before adding the inhibitors. Inhibitors were serially diluted from the stock solutions in complete medium and added to the cells. Incubation in the presence of inhibitors was continued for 72 days. Cell viability was assessed by the AlamarBlue (Invitrogen) or CellTiterBlue/Glo (Promega) method according to manufacturer’s instructions. The curve fits and IC50 values were generated in PRISM (GraphPad, San Diego, CA).

134197 HGSOC PDX = assay: HGSOC PDX model 134197; format: in vivo, NSG mice; settings: 134197 cisplatin-resistant PDX; 20 mg/kg i.v. biweekly, 6 weeks
Experimental: Two to three mm ovarian tumor fragments were subcutaneously engrafted in the left flank of NSG mice and monitored by physical palpation for tumor growth and engraftment. Engrafted tumors were measured twice a week using digital Vernier calipers and maximum tumor diameter + perpendicular tumor length were digitally recorded into the Study Director software (v 3.0/4.0 StudyLog). Tumor volume was calculated automatically (tumor volume (mm^3) = 0.5236 x [larger diameter (mm) x smaller diameter (mm)^2]). Mice were randomized to treatment once their tumor volume reach 180–300 mm^3 and tumor measurements were performed twice a week up to 120 days or when the tumor volume reaches 700 mm^3.
Time to progressive disease (PD): Defined as the time (in days) from beginning of treatment to an increase in average tumor volume of >20% from the nadir (taken as the smallest average tumor volume recorded since treatment started or 200 mm^3 if nadir was <200 mm^3 as lesions smaller than this are difficult to measure with accuracy). Median time to harvest (TTH): Defined as the time (in days) from the beginning of treatment to day of harvest at 700 mm^3 and the median TTH was calculated and plotted using Kaplan-Meier curves. Based on ref. [27]. […]

porcine tubulin = assay: Tubulin in vitro polymerization assay (fluorescence-based, BK011P); format: biochemical; settings: purified tubulin
Experimental: A commercial fluorescence-based tubulin polymerization assay (Cytoskeleton, Denver, CO; Cat. # BK011P) was used as per manufacturer’s instructions for detection of tubulin polymerization inhibitors. Briefly, porcine tubulin (3 mg/ml tubulin in 80 mM PIPES pH 7.0, 0.5 mM EGTA, 2 mM MgCl2, 1 mM GTP and 10% glycerol) was incubated at 37 °C with either vehicle control (DMSO), with Paclitaxel or antimitotic compound. Each condition was tested in duplicate. Polymerization was measured over time by excitation at 360 nm and emission at 420 nm in a temperature controlled 96-well plate fluorimeter (Envision 2105, Perkin-Elmer, Waltham, MS) equipped with filters for excitation at 340–360 nm and emission at 420–450 nm.

U87MGΔ2–7 = assay: Cell growth inhibition assay, U87MGΔ2–7; format: cell-based; settings: Homo sapiens; U87MGΔ2–7, glioblastoma expressing activated EGFR; 72 h viability assay, CellTiterGlo; mean of 3 ± SEM; read-out: IC50 (inhibition of cellular proliferation)
Experimental: as §1, with “Incubation in the presence of inhibitors was continued for 72 days.” left out

LIM 2537 = assay: Cell growth inhibition assay, LIM 2537; format: cell-based; settings: Homo sapiens; LIM 2537, colon carcinoma; 72 h viability assay, CellTiterGlo; mean of 3 ± SEM; read-out: IC50 (inhibition of cellular proliferation)
Experimental: as §1, with “Incubation in the presence of inhibitors was continued for 72 days.” left out

SW480 = assay: Cell growth inhibition assay, SW480; format: cell-based, human
Experimental: as §1
a Chemical structures of the triazine-based anti-mitotics used in this study. b Dose-dependent antiproliferative activity of key derivatives and comparison with commonly used anti-mitotics in SW480 cell line: Data shown is cell viability (as measured by CellTiterGlo) after 72 h relative to untreated control cells. Shown is mean of 3 independent experiments performed in duplicate +/- SEM. c Dose-dependent cell cycle analysis of key derivatives of WEHI-7326 development in SW480 cell line. Data are presented as percentage of cells in G2/M or subG0 after 24 h incubation with titration of inhibitors as assessed by PI staining and flow cytometry. Mean average of 3 experiments +/- SEM. d Comparison of IC50 and EC50 values of triazine compounds and anti-mitotic drugs in SW480 cell line: inhibition of cellular proliferation and cell cycle arrest in G2/M. IC50 and EC50 values are the mean of 3 independent experiments run in duplicates +/- SEM (n.d. = not determined). e HepG2 cytotoxic assay: cell viability assay after 48 h, normalised to 0.4% DMSO (100% viability) and 2 μM bortezomib (0% viability). The data is the mean average of 2 experiments +/- SD.

## COc1ccc(CNc2nc(NCc3ccc(CN)cc3)nc(NN3CC(=O)NC3=O)n2)cc1 [WEHI-7326]
MH792 LUSC PDX; MH792 PDX mice, 20 mg/kg i.v. twice a week, n = 8–10
  Adverse effects in treatment arm: 1 with hind limb paralysis after 4 weeks of treatment
MH792 LUSC PDX; MH792 PDX, WEHI-7326 20 mg/kg i.v. biweekly, docetaxel 10 mg/kg i.p. once
  Median survival: 34 days
[1]
  Anti-proliferative activity relative to myoseverin B: over 10 fold
134197 HGSOC PDX
  Median time to harvest (TTH): 92 days
  Time to progressive disease (PD): 35 days
Porcine tubulin; 50 μM
  Effect on in vitro tubulin polymerization: markedly slowed tubulin polymerization
Porcine tubulin; concentrations up to 15 μM, vs vehicle
  Effect on in vitro tubulin polymerization rates: did not affect
U87MGΔ2–7
  IC50: 6.1 ± 1.6 nM
LIM 2537
  IC50: 58.9 ± 7.5 nM
SW480; Homo sapiens, SW480, colon carcinoma, 72 h viability assay, CellTiterGlo, mean of 3 ± SEM, read-out: IC50 (inhibition of cellular proliferation)
  IC50: 39.5 ± 4.1 nM
SW480; SW480
  Potency relative to myoseverin B: almost ten-fold
SW480; SW480 colon cancer cell line in vitro
  Concentration inhibiting proliferation: at or below micromolar concentration
